# From the RepoRT retention time repository (doi:10.1021/ac300829f)
# Assay: RP, Thermo Scientific Hypersil GOLD, 150 × 2.1 mm, 1.9 µm, 0.5 mL/min, estimated dead time 0.66 min; A: water + 0.1% formic acid, pH 3; B: acetonitrile + 0.1% formic acid, pH 3; gradient (min/%B) 0/0 2/0 13/100 15.5/100 19/0
# Conditions: stereoisomer not certain
row,LC retention time,SMILES
1,6.3 min,O=C(OC1OC(C(=O)O)C(O)C(O)C1O)c1c[nH]c2ccccc12 (centres undefined) [3-indole carboxylic acid glucuronide]
2,5.8 min,OCc1ccccc1O [2-hydroxybenzyl alcohol]
3,7.3 min,CCCCCC=CC(=O)OC(CC(=O)[O-])C[N+](C)(C)C (centres undefined) [octenoylcarnitine]
4,5 min,CCCC(=O)OC(CC(=O)[O-])C[N+](C)(C)C (centres undefined) [butyrylcarnitine]
